In patent US20260241012A1, “1,8-NAPHTHYRIDIN-2-ONE HETEROBIFUNCTIONAL BCL6 DEGRADERS” (Treeline Biosciences, Inc., priority 2022, published 2026):

Target: T1, N-terminal HiBiT tagged BCL6 (Homo sapiens, UniProt P41182)
T1 construct: expressed in transfected cells; host or cells: HT1080 (ATCC CCL-121), stably transduced with lentivirus pLV-UBC-N-HiBiT-BCL6-PGK-puro
Test: HiBiT based degradation assay
Format: cell-based
Details: HT1080 cells expressing N-terminal HiBiT tagged BCL6, 5 hours of incubation; for Ymin (5 hr): BCL6 degradation normalized with DMSO control; for DC50: four-parameter logistic model, read-out: EC50 (5 hr)
Summary of the method: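 Degradation measured by luminescence from the Nano-Glo HiBiT lytic reagent (15 min, room temperature), normalized to DMSO controls and fitted to a four-parameter curve.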

Compound	Ymin (5 hr)	DC50 [nM]
CNC(=O)COc1cc2cc(Nc3nc(N4CCN(CC5CCN(c6cccc7c(C8CCC(=O)NC8=O)nn(C)c67)CC5)[C@@H](C(F)(F)F)C4)ncc3Cl)cnc2n(C(C)C)c1=O (stereo partly drawn) [Compound 163a, 2-[[6-[[5-chloro-2-[(3R)-4-[[1-[3-(2,6-dioxo-3-piperidyl)-1-methyl-indazol-7-yl]-4-piperidyl]methyl]-3-(trifluoromethyl)piperazin-1-yl]pyrimidin-4-yl]amino]-1-isopropyl-2-oxo-1,8-naphthyridin-3-yl]oxy]-N-methyl-acetamide]	+++ (30% ≤ Ymin < 50%)	100 to 1000
CNC(=O)COc1cc2cc(Nc3nc(N4CCC(Oc5ccc6c(C7CCC(=O)NC7=O)nn(C)c6c5)CC4)ncc3Cl)cnc2n(C(C)C)c1=O (centres unmarked) [Compound 164, 2-[[6-[[5-chloro-2-[4-[3-(2,6-dioxo-3-piperidyl)-1-methyl-indazol-6-yl]oxy-1-piperidyl]pyrimidin-4-yl]amino]-1-isopropyl-2-oxo-1,8-naphthyridin-3-yl]oxy]-N-methyl-acetamide]	+++ (30% ≤ Ymin < 50%)	< 10
CNC(=O)COc1cc2cc(Nc3nc(N4CCN(c5ccc6c(C7CCC(=O)NC7=O)nn(C)c6c5)CC4)ncc3Cl)cnc2n(C(C)C)c1=O (centres unmarked) [Compound 165, 2-[[6-[[5-chloro-2-[4-[3-(2,6-dioxo-3-piperidyl)-1-methyl-indazol-6-yl]piperazin-1-yl]pyrimidin-4-yl]amino]-1-isopropyl-2-oxo-1,8-naphthyridin-3-yl]oxy]-N-methyl-acetamide]	++ (50% ≤ Ymin < 70%)	< 10
CNC(=O)COc1cc2cc(Nc3nc(N4CCN(c5cccc6c(C7CCC(=O)NC7=O)nn(C)c56)CC4)ncc3Cl)cnc2n(C(C)C)c1=O (centres unmarked) [Compound 166, 2-[[6-[[5-chloro-2-[4-[3-(2,6-dioxo-3-piperidyl)-1-methyl-indazol-7-yl]piperazin-1-yl]pyrimidin-4-yl]amino]-1-isopropyl-2-oxo-1,8-naphthyridin-3-yl]oxy]-N-methyl-acetamide]	+++ (30% ≤ Ymin < 50%)	< 10
CNC(=O)COc1cc2cc(Nc3nc(N4CCC(F)(CN5CCC(c6ccc7c(C8CCC(=O)NC8=O)nn(C)c7c6)CC5)CC4)ncc3Cl)cnc2n(C(C)C)c1=O (centres unmarked) [Compound 167, 2-[[6-[[5-chloro-2-[4-[[4-[3-(2,6-dioxo-3-piperidyl)-1-methyl-indazol-6-yl]-1-piperidyl]methyl]-4-fluoro-1-piperidyl]pyrimidin-4-yl]amino]-1-isopropyl-2-oxo-1,8-naphthyridin-3-yl]oxy]-N-methyl-acetamide]	++++ (Ymin < 30%)	< 10
CNC(=O)COc1cc2cc(Nc3nc(N4CCN(CC5CCN(c6cccc7c(C8CCC(=O)NC8=O)nn(C)c67)CC5)C[C@@H]4C)ncc3Cl)cnc2n(C(C)C)c1=O (stereo partly drawn) [Compound 168a, 2-[[6-[[5-chloro-2-[(2S)-4-[[1-[3-(2,6-dioxo-3-piperidyl)-1-methyl-indazol-7-yl]-4-piperidyl]methyl]-2-methyl-piperazin-1-yl]pyrimidin-4-yl]amino]-1-isopropyl-2-oxo-1,8-naphthyridin-3-yl]oxy]-N-methyl-acetamide]	+++ (30% ≤ Ymin < 50%)	10 to 100
CNC(=O)COc1cc2cc(Nc3nc(N4CCN(CC5CCN(c6cccc7c(C8CCC(=O)NC8=O)nn(C)c67)CC5)C[C@H]4C)ncc3Cl)cnc2n(C(C)C)c1=O (stereo partly drawn) [Compound 168b, 2-[[6-[[5-chloro-2-[(2R)-4-[[1-[3-(2,6-dioxo-3-piperidyl)-1-methyl-indazol-7-yl]-4-piperidyl]methyl]-2-methyl-piperazin-1-yl]pyrimidin-4-yl]amino]-1-isopropyl-2-oxo-1,8-naphthyridin-3-yl]oxy]-N-methyl-acetamide]	+++ (30% ≤ Ymin < 50%)	10 to 100
